# Patent US6808714B2, “Detection of sarcocystis neurona” (priority 2000, dated 2004)
# System: S. neurona merozoites
# Assay: Ionophore A23187-stimulated merozoite release from infected host cell monolayers
# Assay type: cell-based, Sarcocystis neurona
# Procedure: A stock solution of calcium ionophore A23187 (Sigma) was prepared in dimethylsulfoxide to a final concentration of 1 mg/ml and stored at −20° C. Infected cell monolayers (see example 1) at 12 days post infection were washed three times with PBS or Hanks Balanced Salts Solution (HBSS), and 10 ml of A23187 (1 μM in HBSS) was added to the washed monolayer and incubated at 37° C. for 40 min. in 5% CO2, 95% air. Free merozoites were collected by centrifugation and washed in PBS as above. Parasites released by this method were examined by density gradient centrifugation, but further separation from host cell debris by density gradient centrifugation was not routinely necessary. For further purification, parasites recovered from the supernatant were isolated from host cell debris on a discontinuous buoyant density gradient using Iodixanol (Optiprep) in PBS or HBSS. Merozoites were suspended gently in 1.0 ml PBS and were layered onto a preformed, three step discontinuous gradient with layers of 1.03, 1.04 and 1.06 g/ml in a 15 ml round bottom centrifuge tube. The gradient was centrifuged at 1000×g for 25 min at 20° C. with the brake off. Fractions containing particulate material at each interface were collected and examined microscopically. The fractions(s) containing significant amounts of merozoites were collected for use.
# Lung cells at 60% confluence were seeded at a density of 0.1 merozoites per host cell and parasite growth was monitored microscopically for 30 days. Free parasites were not observed until 10 days post infection. During most of the period of observation, the percentage of extracellular parasites was less than 10%. On day 28, the largest number of free parasites was counted; but the next day the numbers of extracellular parasites was back to less than 10%. Duplicate 75 cm flasks were grown for 12 days in HL cells and treated with HBSS or HBSS with 1 μM A23187. Free parasites were collected by centrifugation and counted with a hemocytometer.
smiles,measurement,setting,value
CNc1ccc2oc(C[C@H]3O[C@@]4(CC[C@H]3C)O[C@H]([C@H](C)C(=O)c3ccc[nH]3)[C@H](C)C[C@H]4C)nc2c1C(=O)O [A23187],Merozoite release in response to ionophore treatment,"infected GT, HFF, CHO, BHK and primary EM cells, same conditions",refractory
same,Enhancement of collection of parasites free in the culture medium,infected host cells incubated 40 min in 1 μM A23187,90 fold
same,Merozoite release in response to ionophore treatment,"parasitized BM, BM0617, HL, BT and ED cells",released merozoites
